According to patent US6962941B2, “Tryptase inhibitors” (Altana Pharma AG, priority 2001, dated 2005):

Biological target: human tryptase
Assay: Inhibition of human tryptase (apparent dissociation constant, tos-Gly-Pro-Arg-pNA cleavage)
Type: biochemical
Conditions: pKiapp = -log Kiapp (mol/l), in the presence of substrate, heparin 0.1-50 μg/ml
Excerpt: The documented pathophysiological effects of mast cell tryptase are brought about directly by the enzymatic activity of the protease. Accordingly, they are reduced or blocked by inhibitors which inhibit the enzymatic activity of tryptase. A suitable measure of the affinity of a reversible inhibitor for the target protease is the equilibrium dissociation constant Ki of the enzyme/inhibitor complex. This value of Ki can be determined via the influence of the inhibitor on the tryptase-induced cleavage of a chromogenic peptide-p-nitroanilide substrate or of a fluorogenic peptide-aminomethylcoumarin substrate.
The dissociation constants for the tryptase/inhibitor complexes are determined under equilibrium conditions in accordance with the general proposals of Bieth (Bieth J. G., Pathophysiological Interpretation of kinetic constants of protease inhibitors, Bull. Europ. Physiopath. Resp. 16:183-195, 1980) and the methods of Sommerhoff et al. (Sommerhoff C. P. et al., A Kazal-type inhibitor of human mast cell tryptase: Isolation from the medical leech Hirudo medicinalis, characterization, and sequence analysis, Biol. Chem. Hoppe-Seyler 375: 685-694, 1994).
Human tryptase is prepared pure from lung tissue or is prepared by recombination; the specific activity of the protease which has been determined by titration is normally more than 85% of the theoretical value. […]

- pKiapp: 8.35
Compound: COC(=O)C1CC(NC(=O)OCC#CCOC(=O)NC2CC(C(=O)OC)N(C(=O)CCc3cccc(CN)c3)C2)CN1C(=O)CCc1cccc(CN)c1.Cl.Cl (stereo not shown) [Compound 1, 1,4-Bis-{N-[3-(3-aminomethylphenylproplonyl)-2-methoxycarbonylpyrrolidin-4-yl]aminocarbonyloxy}-2-butyne dihydrochloride]
